Measured values reported in patent publication US20240124504A1, “AROMATIC HETEROCYCLIC COMPOUND, AND PHARMACEUTICAL COMPOSITION AND APPLICATION THEREOF” (GT APEIRON THERAPEUTICS LIMITED, priority 2020, published 2024).

Assays:
[1] = molecular target: CDK7/cyclinH/MAT1 complex (Homo sapiens, UniProt P50613); test: In-vitro enzymatic inhibitory activity testing, CDK7 inhibition assay (Caliper EZ Reader II); type: biochemical; conditions: CDK7/cyclinH/MAT1 6 nM, 180 min at 27° C.
Protocol: (§1) CDK12/CyclinK was diluted in an assay buffer (80 mM MES PH 6.5, 0.01% Tween 20, 50 ug/mL BSA, 10 mM MgCl2) to afford a corresponding enzyme solution with the 2.4 concentration. A compound was dissolved in dimethyl sulfoxide (DMSO) at a concentration of 10 mM. […] 2 ul of a test compound solution was mixed with 5 ul of the enzyme solution; after incubation for 10 min, 5 ul of the polypeptide substrate and ATP mixed solution was added; incubation was carried out for 180 min at 27° C.; and then, the reaction was terminated by adding 4 uL of EDTA with a concentration of 120 mM to each sample. […] A CDK9/cyclinT1 complex (8 nM) and a “5-FAM-CDK9tide” peptide substrate (2 IM, synthetic fluorophore-labeled peptide with the following sequence: 5-FAM-GSRTPMY-NH2, wherein 5-FAM was as defined above and NH2 represented C-terminal amide) were used for a CDK9 inhibition assay. […] A CDK2/cyclinE1 complex (0.5 nM) and “5-FAM-CDK7tide” (2 μM) as defined above were used for CDK2 inhibition assay.
(§2) A reaction mixture was analyzed on Caliper EZ Reader II by electrophoretic separation of a fluorogenic substrate and a phosphorylated product. Data were calculated by using GraphPad Prism version 6.0, and IC50 values were adjusted and obtained by using a nonlinear regression model of a dose response curve.

CDK2/cyclinE1 complex = CDK2/cyclinE1 complex (Homo sapiens, UniProt P24941); test: In-vitro enzymatic inhibitory activity testing, CDK2 inhibition assay (Caliper EZ Reader II); type: biochemical; conditions: CDK2/cyclinE1 0.5 nM, 180 min at 27° C.
Protocol: CDK12/CyclinK was diluted in an assay buffer (80 mM MES PH 6.5, 0.01% Tween 20, 50 ug/mL BSA, 10 mM MgCl2) to afford a corresponding enzyme solution with the 2.4 concentration. […] A CDK9/cyclinT1 complex (8 nM) and a “5-FAM-CDK9tide” peptide substrate (2 IM, synthetic fluorophore-labeled peptide with the following sequence: 5-FAM-GSRTPMY-NH2, wherein 5-FAM was as defined above and NH2 represented C-terminal amide) were used for a CDK9 inhibition assay. […] A CDK2/cyclinE1 complex (0.5 nM) and “5-FAM-CDK7tide” (2 μM) as defined above were used for CDK2 inhibition assay.
as §2

[2] = test system: human breast cancer cells HCC70; test: Cell biological activity detection (CyQuant, 72 hours), HCC70; type: cell-based; conditions: Homo sapiens, HCC70, 72 h, incubation for 72 hours
Protocol: (§3) A2780 and HCC70 cells were subjected to trypsin digestion treatment, and cell suspensions were respectively transferred to 15 mL centrifuge tubes and centrifuged for 5 min at […]) rpm; supernatant was discarded, and resuspension was carried out in a fresh medium (RPMI 1640+10% FBS), after counting, cells were seeded into a 384-well plate at 2000/well (50 μL of 1640+10% FBS medium was added to the 2nd column and the 23rd column of the 384-well plate, and 50 μL of DPBS was added to the surrounding wells). Incubation was carried out overnight in an incubator (37° C., 5% CO2).
(§4) The compound was added to the well plates the next day. The compound had the highest concentration of 10 μM and was diluted at 1:4, and there were a total of 9 concentrations; and a positive compound Paclitaxel had the highest concentration of 1 μM and was diluted at 1:3, and there were a total of 9 concentrations. The DMSO content in each well was unified to 0.2%. The cell plates were centrifuged for 30 seconds at 800 rpm and placed in an incubator (37° C., 5% CO2) for incubation for 72 hours. On the fourth day, a Cyquant reagent (3×) was formulated according to kit instructions, and formulation was carried out for each 384-well plate according to the following proportions: DPBS 11.568 mL, CyQuant®? Direct nucleic acid stain 72 μL, and CyQuant® Direct background suppressor 360 μL. After uniform mixing, the reagent was placed at room temperature for further use. The cell plates were taken out and equilibrated for 30 min at room temperature, and 25 μL of the Cyquant reagent (3×) per well was dispensed into the cells of the 384-well plates by Multi-drop, and incubation was carried out for more than 60 minutes at 37° C. Acumen plate reading (Acumen setting: an excitation wavelength of 488 nm). IC50 results were analyzed by XLFIT5 from IDBS Company.

CDK9/cyclinT1 complex = CDK9/cyclinT1 complex (Homo sapiens, UniProt P50750); test: In-vitro enzymatic inhibitory activity testing, CDK9 inhibition assay (Caliper EZ Reader II); type: biochemical; conditions: CDK9/cyclinT1 8 nM, 180 min at 27° C.
Protocol: as §1, §2

ovarian cancer A2780 = test: Cell biological activity detection (CyQuant, 72 hours), A2780; type: cell-based, human; conditions: A2780 cells, incubation for 72 hours
Protocol: as §3, §4

[3] = molecular target: T1, CDK12 (aa686-1082)/cyclinK complex (Homo sapiens, UniProt Q9NYV4); test: In-vitro enzymatic inhibitory activity testing, CDK12 inhibition assay (Caliper EZ Reader II); type: biochemical; conditions: CDK12/cyclinK 50 nM, 180 min at 27° C.; read-out: CDK12 IC50
T1 construct: A CDK12 (aa686-1082)/cyclinK complex (50 nM)
Protocol: An assay was carried out in a U-bottom 384-well plate (coming, 4512#), and the reaction temperature was 27° C. CDK7/CyclinH was diluted in an assay buffer (20 mM MES PH 6.75, 0.01% Tween 20, 50 ug/mL BSA, 6 mM MgCl2) to afford a corresponding enzyme solution with the 2.4× concentration. CDK2/CyclinE1 was diluted in an assay buffer (20 mM MES PH 6.75, 0.01% Tween 20, 50 ug/mL BSA, 6 mM MgCl2) to afford a corresponding enzyme solution with the 2.4× concentration. CDK9/CyclinT1 was diluted in an assay buffer (20 mM MES PH 6.75, 0.01% Tween 20, 50 ug/mL BSA, 10 mM MgCl2) to afford a corresponding enzyme solution with the 2.4× concentration. CDK12/CyclinK was diluted in an assay buffer (80 mM MES PH 6.5, 0.01% Tween 20, 50 ug/mL BSA, 10 mM MgCl2) to afford a corresponding enzyme solution with the 2.4 concentration. A compound was dissolved in dimethyl sulfoxide (DMSO) at a concentration of 10 mM. During use, the compound was diluted with DMSO into 10 concentration gradients from 25 nM to 500 uM, and respectively diluted by 8.3 folds in the assay buffer to afford a compound solution with a 6× concentration. A polypeptide substrate and ATP were diluted in the assay buffer to afford a polypeptide substrate and ATP mixed solution with a 2.4× concentration. 2 ul of a test compound solution was mixed with 5 ul of the enzyme solution; after incubation for 10 min, 5 ul of the polypeptide substrate and ATP mixed solution was added; incubation was carried out for 180 min at 27° C.; and then, the reaction was terminated by adding 4 uL of EDTA with a concentration of 120 mM to each sample. […]. Specifically, a CDK7/cyclinH/MAT1 complex (6 nM) and a “5-FAMCD K 7 tide” peptide substrate (2 μM, synthetic fluorophore-labeled peptide with the following sequence: 5-FAM-[…], wherein “5-FAM” refers to 5-carboxyfluorescein) were used for a CDK7 inhibition assay. A CDK9/cyclinT1 complex (8 nM) and a “5-FAM-CDK9tide” peptide substrate (2 IM, synthetic fluorophore-labeled peptide with the following sequence: 5-FAM-GSRTPMY-NH2, wherein 5-FAM was as defined above and NH2 represented C-terminal amide) were used for a CDK9 inhibition assay. A CDK12 (aa686-1082)/cyclinK complex (50 nM) and “5-FAM-CDK9tide” (2 μM) as defined above were used for a CDK12 inhibition assay. A CDK2/cyclinE1 complex (0.5 nM) and “5-FAM-CDK7tide” (2 μM) as defined above were used for CDK2 inhibition assay.
as §2

Sequence of CDK9/cyclinT1 complex (P50750 whole entry, species assumed): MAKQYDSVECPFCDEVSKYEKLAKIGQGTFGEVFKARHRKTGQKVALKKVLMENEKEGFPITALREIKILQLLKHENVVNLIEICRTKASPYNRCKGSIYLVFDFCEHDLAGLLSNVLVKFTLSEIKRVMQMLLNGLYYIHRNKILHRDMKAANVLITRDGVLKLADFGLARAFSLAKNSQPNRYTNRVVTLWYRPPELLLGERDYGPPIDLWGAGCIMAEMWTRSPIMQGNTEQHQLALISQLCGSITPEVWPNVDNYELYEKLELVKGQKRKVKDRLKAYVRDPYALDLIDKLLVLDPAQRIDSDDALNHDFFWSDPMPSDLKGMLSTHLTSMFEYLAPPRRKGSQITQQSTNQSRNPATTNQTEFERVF
Sequence of CDK9/cyclinT1 complex (O60563 whole entry partner, species assumed): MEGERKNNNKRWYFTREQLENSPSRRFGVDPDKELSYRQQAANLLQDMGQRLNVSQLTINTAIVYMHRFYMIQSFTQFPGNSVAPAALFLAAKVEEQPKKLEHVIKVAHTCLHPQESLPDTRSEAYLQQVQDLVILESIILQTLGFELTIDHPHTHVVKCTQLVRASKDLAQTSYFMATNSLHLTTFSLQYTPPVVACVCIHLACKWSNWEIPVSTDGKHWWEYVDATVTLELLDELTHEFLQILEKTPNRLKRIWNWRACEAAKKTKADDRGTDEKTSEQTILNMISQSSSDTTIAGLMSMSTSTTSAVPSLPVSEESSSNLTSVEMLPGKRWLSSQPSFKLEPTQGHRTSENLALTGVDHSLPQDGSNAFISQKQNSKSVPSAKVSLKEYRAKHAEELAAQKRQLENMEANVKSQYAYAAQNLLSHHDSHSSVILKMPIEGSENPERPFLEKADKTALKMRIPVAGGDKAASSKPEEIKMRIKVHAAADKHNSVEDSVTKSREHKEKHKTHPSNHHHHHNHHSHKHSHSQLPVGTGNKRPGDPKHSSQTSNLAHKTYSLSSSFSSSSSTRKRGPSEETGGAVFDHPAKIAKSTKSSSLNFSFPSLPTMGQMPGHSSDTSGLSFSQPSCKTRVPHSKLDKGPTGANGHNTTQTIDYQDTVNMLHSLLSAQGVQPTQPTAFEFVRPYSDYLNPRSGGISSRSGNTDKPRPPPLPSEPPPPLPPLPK
Sequence of CDK7/cyclinH/MAT1 complex (P50613 whole entry, species assumed): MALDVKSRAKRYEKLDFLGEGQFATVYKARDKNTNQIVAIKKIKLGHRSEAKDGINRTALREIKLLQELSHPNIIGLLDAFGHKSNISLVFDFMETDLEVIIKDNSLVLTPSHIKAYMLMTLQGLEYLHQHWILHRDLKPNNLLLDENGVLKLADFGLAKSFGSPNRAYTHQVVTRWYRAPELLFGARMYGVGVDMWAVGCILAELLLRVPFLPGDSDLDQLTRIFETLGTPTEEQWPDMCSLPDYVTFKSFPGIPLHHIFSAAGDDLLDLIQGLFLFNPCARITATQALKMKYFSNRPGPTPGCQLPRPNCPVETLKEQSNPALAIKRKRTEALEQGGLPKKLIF
Sequence of CDK7/cyclinH/MAT1 complex (P51946 whole entry partner, species assumed): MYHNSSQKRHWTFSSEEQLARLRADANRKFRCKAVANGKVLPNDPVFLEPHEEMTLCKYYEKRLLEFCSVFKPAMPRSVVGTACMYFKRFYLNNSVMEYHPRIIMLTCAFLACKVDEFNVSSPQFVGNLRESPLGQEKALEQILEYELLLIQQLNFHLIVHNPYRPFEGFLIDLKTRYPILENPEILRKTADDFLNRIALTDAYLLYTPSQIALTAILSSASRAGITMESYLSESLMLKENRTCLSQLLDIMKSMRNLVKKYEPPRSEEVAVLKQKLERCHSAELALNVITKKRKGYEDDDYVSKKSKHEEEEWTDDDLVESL
Sequence of CDK7/cyclinH/MAT1 complex (P51948 whole entry partner, species assumed): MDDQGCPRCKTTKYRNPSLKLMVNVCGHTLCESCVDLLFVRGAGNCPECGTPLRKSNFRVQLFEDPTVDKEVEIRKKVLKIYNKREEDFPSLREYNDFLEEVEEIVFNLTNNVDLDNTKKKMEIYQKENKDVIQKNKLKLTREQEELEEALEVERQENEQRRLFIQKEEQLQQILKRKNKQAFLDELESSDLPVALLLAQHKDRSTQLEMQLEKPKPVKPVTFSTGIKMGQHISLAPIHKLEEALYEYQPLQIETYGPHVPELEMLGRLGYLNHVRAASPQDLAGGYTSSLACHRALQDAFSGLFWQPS
T1 sequence (Q9NYV4 686-1082, species assumed): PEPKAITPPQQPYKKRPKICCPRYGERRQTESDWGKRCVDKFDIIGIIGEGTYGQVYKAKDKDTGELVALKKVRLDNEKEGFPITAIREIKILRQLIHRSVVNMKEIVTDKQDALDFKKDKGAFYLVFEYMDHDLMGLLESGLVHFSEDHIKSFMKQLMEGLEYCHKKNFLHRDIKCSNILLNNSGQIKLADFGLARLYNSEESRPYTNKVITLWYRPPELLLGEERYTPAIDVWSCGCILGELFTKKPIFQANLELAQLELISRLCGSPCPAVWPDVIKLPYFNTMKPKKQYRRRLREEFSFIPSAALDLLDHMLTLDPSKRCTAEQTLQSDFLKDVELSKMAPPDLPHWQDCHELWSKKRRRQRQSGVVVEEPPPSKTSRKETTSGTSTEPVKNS
T1 sequence (O75909 whole entry partner, species assumed, the tested form may be a part): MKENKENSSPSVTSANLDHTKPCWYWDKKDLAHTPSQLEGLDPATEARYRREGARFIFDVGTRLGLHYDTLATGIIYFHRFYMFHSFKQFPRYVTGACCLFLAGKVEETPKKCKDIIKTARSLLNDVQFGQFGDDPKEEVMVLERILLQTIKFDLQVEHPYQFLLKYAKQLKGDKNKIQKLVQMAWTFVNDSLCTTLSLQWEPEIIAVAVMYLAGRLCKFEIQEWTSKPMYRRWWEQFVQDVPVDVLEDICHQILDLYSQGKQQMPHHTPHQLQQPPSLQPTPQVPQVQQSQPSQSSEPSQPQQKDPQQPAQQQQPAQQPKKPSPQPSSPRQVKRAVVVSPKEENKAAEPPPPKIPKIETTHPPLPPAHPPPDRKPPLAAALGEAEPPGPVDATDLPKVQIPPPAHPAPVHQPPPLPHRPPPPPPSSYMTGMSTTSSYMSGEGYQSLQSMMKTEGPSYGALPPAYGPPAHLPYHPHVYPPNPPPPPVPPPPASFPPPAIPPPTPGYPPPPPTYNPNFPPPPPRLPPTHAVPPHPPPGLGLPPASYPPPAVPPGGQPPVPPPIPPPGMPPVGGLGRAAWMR

IC50 [1] [µM]	IC50 (CDK2/cyclinE1 complex) [µM]	IC50 (CDK9/cyclinT1 complex) [µM]	IC50 (ovarian cancer A2780; Homo sapiens, A2780, 72 h) [µM]	IC50 [3] [µM]	IC50 (ovarian cancer A2780) [µM]	SMILES	IC50 [2] [µM]
< 0.02	0.2 to 5	5 to 50	< 0.02	5 to 50		C[C@@H](CO)Nc1ncc(Br)c(-c2c[nH]c3c(P(C)(C)=O)cccc23)n1 [Compound 177, (S)-(3-(5-bromo-2-((1-hydroxypropan-2-yl)amino)pyrimidin-4-yl)-1H-indole-7-yl)dimethylphosphine oxide]	< 0.02
						CC(C)(C)[C@H](CO)Nc1ncc(C(F)(F)F)c(-c2c[nH]c3c(P(C)(C)=O)cccc23)n1 [Compound 176]	< 0.02
< 0.02	5 to 50	5 to 50	< 0.02	0.2 to 5		Cc1noc(C)c1-c1ccc2c(-c3nc(N[C@@H]4CCC45CNC5)ncc3C(F)(F)F)c[nH]c2n1 [Compound 36, (R)—N-(4-(6-(3,5-dimethylisoxazol-4-yl)-1H-pyrrolo[2,3-b]pyridin-3-yl)-5-(trifluoromethyl)pyrimidin-2-yl)-2-azaspiro[3.3]heptan-5-amine]	
< 0.02	5 to 50	5 to 50	0.2 to 5	5 to 50		N#Cc1ccc2c(-c3nc(N[C@@H]4CCC45CNC5)ncc3C(F)(F)F)c[nH]c2n1 [Compound 61, (R)-3-(2-((2-azaspiro[3.3]heptan-5-yl)amino)-5-(trifluoromethyl)pyrimidin-4-yl)-1H-pyrrolo[2,3-b]pyridine-6-carbonitrile]	
< 0.02	0.2 to 5		< 0.02			CP(C)(=O)c1cccc2c(-c3nc(NC4CC(F)(F)CC4O)ncc3C(F)(F)F)c[nH]c12 (single isomer, unassigned) [Compound 191]	0.02 to 0.2
0.02 to 0.2	0.2 to 5	> 50		> 50		COc1cc(P(C)(C)=O)c2[nH]cc(-c3nc(N[C@@H](C)CO)ncc3C(F)(F)F)c2c1 [Compound 104]	
0.02 to 0.2	5 to 50	5 to 50		5 to 50		FC(F)(F)c1cnc(N[C@@H]2CCC[C@@H]3CNC[C@@H]32)nc1-c1c[nH]c2nc(N3CCOCC3)ccc12 [Compound 45, (3aR,4R,7aS)-N-(4-(6-morpholinyl-1H-pyrrolo[2,3-b]pyridin-3-yl)-5-(trifluoromethyl)pyrimidin-2-yl)octahydro-1H-isoindole-4-amine]	
0.2 to 5	0.2 to 5	> 50		> 50		C[C@@H](CO)Nc1ncc(F)c(-c2c[nH]c3c(P(C)(C)=O)cccc23)n1 [Compound 157, (S)-(3-(5-fluoro-2-((1-hydroxypropan-2-yl)amino)pyrimidin-4-yl)-1H-indole-7-yl)dimethylphosphine oxide]	
0.02 to 0.2	5 to 50	> 50		> 50		CC1([C@@H](CO)Nc2ncc(C(F)(F)F)c(-c3c[nH]c4c(P(C)(C)=O)cccc34)n2)CC1 [Compound 112, (S)-(3-(2-((2-hydroxy-1-(1-methylcyclopropyl)ethyl)amino)-5-(trifluoromethyl)pyrimidin-4-yl)-1H-indole-7-yl)dimethylphosphine oxide]	
0.02 to 0.2	5 to 50	> 50		> 50		CP(C)(=O)c1cccc2c(-c3nc(NCC(O)C4CCC4)ncc3C(F)(F)F)c[nH]c12 (single isomer, unassigned) [Compound 140]	
			0.2 to 5			C[C@H]1C[C@H](Nc2ncc(C(F)(F)F)c(-c3c[nH]c4nc(N5CCOCC5)ccc34)n2)CCN1 [Compound 53, N-((2S,4R)-2-methylpiperidin-4-yl)-4-(6-morpholinyl-1H-pyrrolo[2,3-b]pyridin-3-yl)-5-(trifluoromethyl)pyrimidin-2-amine]	0.2 to 5
0.02 to 0.2	0.2 to 5	5 to 50		5 to 50		COc1ccc2c(-c3nc(N[C@@H](C)CO)ncc3C(F)(F)F)c[nH]c2c1P(C)(C)=O [Compound 106, (S)-(3-(2-((1-hydroxypropan-2-yl)amino)-5-(trifluoromethyl)pyrimidin-4-yl)-6-methoxy-1H-indole-7-yl)dimethylphosphine oxide]	
0.2 to 5	> 50	> 50		> 50	5 to 50	FC(F)(F)c1cnc(NC2CCC3CNCC32)nc1-c1c[nH]c2nc(N3CCOCC3)ccc12 (single isomer, unassigned) [Compound 56]	
0.02 to 0.2	5 to 50	> 50		> 50		CP(C)(=O)c1cccc2c(-c3nc(N[C@@H](CO)C4CCC4)ncc3C(F)(F)F)c[nH]c12 [Compound 113, (R)-(3-(2-((1-cyclobutyl-2-hydroxyethyl)amino)-5-(trifluoromethyl)pyrimidin-4-yl)-1H-indole-7-yl)dimethylphosphine oxide]	
